Earlier results in paper PMC6435570, “Zafirlukast Is a Dual Modulator of Human Soluble Epoxide Hydrolase and Peroxisome Proliferator-Activated Receptor γ” (Frontiers in Pharmacology, 2019).

Set-up: method as in Brocks et al., 1996; Knorr et al., 2001; Karonen et al., 2012
Conditions: single oral dose of 20 mg; ref Brocks et al., 1996; Knorr et al., 2001; Karonen et al., 2012; cited from earlier work

For `COc1cc(C(=O)NS(=O)(=O)c2ccccc2C)ccc1Cc1cn(C)c2ccc(NC(=O)OC3CCCC3)cc12` [Zafirlukast, zafirlukast], the Peak serum level is given as “about 1 μM”.
